Source: paper PMC11528320, “S-MGBs bearing amidine tail groups are potent, selective antiplasmodial agents” (RSC Medicinal Chemistry, 2024)
Like-named read-outs stand apart in the source and are kept apart here.

How the values were obtained:
P. falciparum 3D7 = test: in vitro asexual P. falciparum imaging assay, 3D7 strain; format: cell-based; details: Plasmodium falciparum
Protocol: (§1) The antiplasmodial in vitro assay was performed as previously described.[13] In brief, P. falciparum parasites (3D7 and Dd2 strains) were grown in RPMI-1640 medium supplemented with 25 mM HEPES, 5% AB human male serum, 2.5 mg mL^−1 Albumax II, and 0.37 mM hypoxanthine. Parasites were subjected to two rounds of sorbitol synchronization prior to compound addition. Ring stage parasites were incubated with compounds in 384-well imaging CellCarrier microplates, for 72 h at 37 °C, 90% N2, 5% CO2, 5% O2, parasites stained with 4′,6-diamidino-2-phenylindole (DAPI) and imaged using an Opera QEHS microplate confocal imaging system (PerkinElmer). Images were analysed as previously described,[13] and raw data normalized using the in-plate positive and negative controls to obtain percent inhibition, used to calculate IC50 values, through a four-parameter logistic curve fitting in Prism (GraphPad).

P. falciparum Dd2 = test: in vitro asexual P. falciparum imaging assay, Dd2 strain; format: cell-based; details: for IC50: Plasmodium falciparum, DD2, 72 h, read-out: Dd2 IC50; for Dd2/3D7: ratio of Dd2 IC50 to 3D7 IC50 (cross-resistance)
Protocol: as §1

HEK293 cells = test: HEK293 cell viability (resazurin) assay; format: cell-based, Human; details: for inhibition at 80 µM: Homo sapiens, HEK293, 72 h; for SI, HEK293/3D7: ratio of HEK293 IC50 (or relative IC50) to P. falciparum 3D7 IC50
Protocol: Cell viability was assessed using a minor modification of the protocol previously described.[14] Human embryonic kidney cells (HEK293) were maintained in Dulbecco's modified Eagle's medium supplemented with 10% foetal bovine serum.

[1] = system: Salmon genomic DNA (gDNA); test: UV-vis DNA thermal melting (thermal shift) with gDNA; format: binding; details: 10 μM S-MGB, 0.02 mg mL^−1 salmon gDNA, N = 3; for Tm of S-MGB + gDNA: gDNA alone 70
Protocol: Salmon genomic DNA (gDNA; D1626, Sigma-Aldrich) at 1 mg mL^−1 in 1 mM phosphate buffer (pH 7.4) containing 0.27 mM KCl and 13.7 mM NaCl (P4417, Sigma-Aldrich) was annealed at 90 °C for 10 min and left to cool to room temperature. S-MGBs at 10 mM in DMSO were diluted with the same phosphate buffer to yield a single sample with 10 μM S-MGB and 0.02 mg mL^−1 gDNA in 1 mM phosphate buffer containing 0.27 mM KCl and 13.7 mM NaCl. Control samples containing only S-MGB or gDNA were prepared, respectively. Samples were melted at a rate of 0.5 °C min^−1 from 45 °C to 90 °C with spectra recorded at 260 nm on a UV-1900 UV-vis spectrophotometer fitted with a Peltier temperature controller (Shimadzhu) using LabSolutions (Tm Analysis) software. The melting temperatures (Tms) of the S-MGB:DNA complexes were determined by fitting a sigmoidal function using a Boltzmann distribution in OriginPro.

[2] = system: double stranded DNA oligo 5′-CGCATATATGCG-3′; test: native mass spectrometry (nESI-MS) of binding to dsDNA oligo; details: 9 μM DNA, 100 μM S-MGB
Protocol: DNA oligonucleotide sequence 5′-[…]-3′ was purchased in lyophilized form from Alpha DNA, Canada) and used without further purification, purity assessed by NMR. 100 μM stock solutions of DNA were prepared with 150 mM ammonium acetate solution (Fisher Scientific, Loughborough, Leicestershire, UK) and 2 mM potassium chloride solution (Fisher Scientific, Loughborough, Leicestershire, UK). This solution was annealed at 90 degrees for 10 minutes and allowed to cool to room temperature. 10 mM S-MGB stock in 100% DMSO (Sigma-Aldrich, St. Louis, MO, USA) were diluted to 1 mM S-MGB solution with 150 mM ammonium acetate. Final samples were prepared from this solution to yield final concentrations of 9 μM DNA, 100 μM KCl, and 100 μM s-MGB, 1% DMSO. DNA solutions containing no S-MGB included 1% DMSO and were used as controls.
Native mass spectrometry experiments were carried out on a Synapt G2Si instrument (Waters, Manchester, UK) with a nanoelectrospray ionization source (nESI). Mass calibration was performed by a separate infusion of NaI cluster ions. Solutions were ionized from a thin-walled borosilicate glass capillary (i.d. 0.78 mm, o.d. 1.0 mm, Sutter Instrument Co., Novato, CA, USA) pulled in-house to nESI tip with a Flaming/Brown micropipette puller (Sutter Instrument Co., Novato, CA, USA). A negative potential in range of 1.0–1.2 kV was applied to the solution via a thin platinum wire (diameter 0.125 mm, Goodfellow, Huntingdon, UK). The following non-default instrument parameters were used for the DNA: S-MGB-241 complex: capillary voltage 1.4 kV, sample cone voltage 100 V, source offset 110 V, source temperature 40 °C, trap collision energy 3.0 (V), trap gas 3 mL min^−1. For DNA with no MGB present, the following parameters were changed: capillary voltage 1.0 kV, sample cone voltage 80 V, source offset 95 V and trap gas 4.0 mL min^−1. Data were processed using Masslynx V4.2 and OriginPro 2021, and figures were produced using Chemdraw.

[3] = 3D7, strain not specified, read-out: potency against P. falciparum (approximate, conclusion)

Compound `Cn1cc(NC(=O)c2cc(NC(=O)c3ccc(/C=C/c4ccc5ccccc5c4)cc3)cn2C)cc1C(=O)NCCC(=N)N.O=C(O)C(F)(F)F` [S-MGB-359] has an IC50 (P. falciparum 3D7; 3D7, 72 h, read-out: 3D7 IC50) of 302.1 ± 0.6 nM, an IC50 (P. falciparum 3D7; [3]) of ~100 nM and an IC50 (P. falciparum Dd2) of 318.6 ± 1.1 nM. The Dd2/3D7 (P. falciparum Dd2) was 1.1, the inhibition at 80 µM (HEK293 cells) was 23% and the “HEK293 top concentration tested, used to calculate SI” value (HEK293 cells; not rIC50 as < 30% inhibition) was 80 nM. The “SI, HEK293/3D7” value (HEK293 cells) was > 264.8, the “SI, HEK293/3D7” value (HEK293 cells; listed as 359) was >264.8 and the ΔTm [1] was 16 °C. For the same compound, the “Tm of S-MGB + gDNA” value [1] was 86 °C, the “binding to dsDNA as dimer [DS + 2 M]” value [2] was “bind to DNA as dimers” and the “binding to dsDNA as monomer [DS + 1 M]” value [2] was “minor peak corresponding to the monomer complex”.
`Cn1cc(NC(=O)c2cc(NC(=O)c3ccc(/C=C/c4ccncc4)cc3)cn2C)cc1C(=O)NCCC(=N)N.O=C(O)C(F)(F)F.O=C(O)C(F)(F)F` [S-MGB-365] showed an IC50 (P. falciparum 3D7; 3D7, 72 h, read-out: 3D7 IC50) of 65.3 ± 0.2 nM, an IC50 (P. falciparum 3D7; [3]) of ~100 nM and an IC50 (P. falciparum Dd2) of 79.6 ± 0.2 nM. The Dd2/3D7 (P. falciparum Dd2) was 1.2, the inhibition at 80 µM (HEK293 cells) was 95% and the “SI, HEK293/3D7” value (HEK293 cells) was >612.6. The “SI, HEK293/3D7” value (HEK293 cells; listed as S-MGB-356) was > 612.6, the ΔTm [1] was 12 °C and the “Tm of S-MGB + gDNA” value [1] was 82 °C. For the same compound, the “binding to dsDNA as dimer [DS + 2 M]” value [2] was “bind to DNA as dimers” and the “binding to dsDNA as monomer [DS + 1 M]” value [2] was “no evidence”.
In the case of `COc1cccc(/C=C/c2ccc(C(=O)Nc3cc(C(=O)Nc4cc(C(=O)NCCC(=N)N)n(C)c4)n(C)c3)cn2)c1.O=C(O)C(F)(F)F.O=C(O)C(F)(F)F` [S-MGB-368], the IC50 (P. falciparum 3D7; 3D7, 72 h, read-out: 3D7 IC50) is reported as 134 ± 0.3 nM, the IC50 (P. falciparum 3D7; [3]) is reported as ~100 nM and the IC50 (P. falciparum Dd2) is reported as 201.7 ± 0.3 nM. For the same compound, the Dd2/3D7 (P. falciparum Dd2) was 1.5, the inhibition at 80 µM (HEK293 cells) was 92% and the “SI, HEK293/3D7” value (HEK293 cells) was > 335.8. For the same compound, the “SI, HEK293/3D7” value (HEK293 cells; listed as 368) was >335.8, the ΔTm [1] was 3 °C and the “Tm of S-MGB + gDNA” value [1] was 73 °C. The “binding to dsDNA as dimer [DS + 2 M]” value [2] was “bind to DNA as dimers” and the “binding to dsDNA as monomer [DS + 1 M]” value [2] was “no evidence”.
